Values joined by “and” are separate entries in the source; they are usually repeats but may differ in a detail not shown here. Identical values can stand only once. Like-named read-outs stand apart in the source and are kept apart here.
Legend:
[1] = system: HIV-1 replication in PBMCs; assay: HIV-1 replication in acutely infected PBMCs; format: cell-based, HIV-1 (IIIB); conditions: for EC50: Human immunodeficiency virus 1, PBMC, PBMCs; for suppression of acute HIV-1 replication in PBMCs (in words): fresh PBMCs
Protocol: Suksdorf in was tested on peripheral blood mononuclear cells (PBMCS) which were stimulated for 3 days with PHA (1 .parallel.g/ml). The cells were collected and then infected with the 20X stock HIV-1 (IIIB). This is the same virus that is used in the drug screening assay. PBMCs were used for the following reasons: (1) It is another type of T cell infection. (2) PMBCs are freshly isolated cells not a cell line as are H9 cells. (3) We need to know if the effects of suksdorfin were limited to only an acute HIV-1 infection of a T cell line such as H9 cells. After the cells were infected with HIV-1, the cells were washed and then placed in medium with the cytokine, interleukin 2 (IL-2). IL-2 is needed to keep the cells activated which is necessary also for virus replication.
As part of efforts to biologically characterize 16 the monocytic cell line, U937 and peripheral blood mononuclear cells (PBMCs) were separately infected with HIV-1 and then had various concentrations of the analog added for 4 days of culture.
HIV Growth Inhibition Assay: The T cell line, H9, and the promonocytic cell line, U937, were maintained separately in continuous culture with complete medium (RPMI 1640 and […] fetal calf serum (FCS) at 5% CO2 and 37° C. Cell lines were used in experiments only when in log phase of growth; whereas, uninfected peripheral blood mononuclear cells (PBMCs) were first stimulated with PHA (1 μg/ml) for 3 days. All cell targets were incubated with HIV-1 (IIIB isolate, TCID50 10 ^4 IU/mi, at a multiplicity of infection of 0.1-0.01 IU/cell) for 1 hour at 37° C. and 5% CO2. The cell lines and PBMCs were washed thoroughly to remove unabsorbed virions and resuspended at 4×10^5 cells/ml in complete medium or complete medium with 10% v/v interleukin […] IL-2, respectively. Aliquots ( ml) were placed in wells of 24-well culture plates containing an equal volume of test compound (diluted in the appropriate culture medium). After incubation for 4 days at 37° C., cell density of uninfected cultures was determined by counting cells in a Coulter counter to assess toxicity of the test compound. A p24 antigen ELISA assay was used to determine the level of virus released in the medium of the HIV-infected cultures. The p24 antigen assay uses a HIV-1 anti-p24 specific monoclonal antibody as the capture antibody coated-on 96-well plates. Following a sample incubation period, rabbit serum containing antibodies for HIV-1 p24 is used to tag any p24 "captured" onto the microtiter well surface. Peroxidase conjugated goat anti-rabbit serum is then used to tag HIV-1 p24 specific rabbit antibodies which have complexed with captured p24. […] The cut-off for the p24 ELISA assay is 12. pg/ml. P24 in the culture medium was quantitated against a standard curve containing known amounts of p24. The effective (EC50) and inhibitory (IC50) concentrations (for anti-HIV activity and cytotoxicity, respectively) were determined graphically. Both the EC50 and IC50 values were calculated by plotting drug concentration versus percent inhibition, and then identifying a 50% inhibition value from the graph.

[2] = system: HIV-1 replication in fresh elutriated monocytes; assay: HIV-1 infection of primary elutriated monocytes (p24 antigen); format: cell-based
Description: In order to determine if compound 16 suppressive activity was limited to only fresh T cells infected with HIV-1, elutriated monocytes were infected with HIV-1 and then cultured with various concentrations of compound 16 or AZT. […] This illustrates that the effect of the drμg is not only limited to T cells but also can effect virally infected monocytes.

uninfected H9 cells = assay: Toxicity to uninfected H9 cells (cell growth); format: cell-based; conditions: Homo sapiens
In short: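 H9 T cells exposed to HIV-1 IIIB (0.01-0.1 TCID50/cell) for 1 h at 37° C, washed, then grown with compound for 3-4 days at 37° C. Toxicity taken from cell counts of uninfected cultures and virus from p24 ELISA of supernatants. EC50 and IC50 were read graphically from concentration versus percent inhibition plots.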

[3] = system: HIV-1 replication in fresh monocytes; assay: HIV-1 infection of fresh monocytes obtained by adherence (p24); format: cell-based; conditions: for inhibition at 0.032 µg/mL / inhibition at 0.16 µg/mL / inhibition at 0.8 µg/mL / inhibition at 4 µg/mL / inhibition at 20 µg/mL: Human immunodeficiency virus 1, Monocyte, read-out: % suppression
Description: Results (Table 12) from adding Suksdorfin to fresh monocytes infected with HIV-1.
The monocytes which were used for this experiment were obtained by adherence and not by elutriation; therefore, this cell population is not as pure as what was used for the 16 monocyte data above.

For `CC1(C)Oc2ccc3ccc(=O)oc3c2[C@@H](OC(=O)[C@@]23CC[C@@](C)(C(=O)O2)C3(C)C)[C@H]1OC(=O)[C@@]12CC[C@@](C)(C(=O)O1)C2(C)C` [Compound 16, 3',4'-Di-O-(-)-Camphanoyl-(+)-cis-Khellactone], the EC50 [1] was 0.018 µg/mL and 29 nM, the “suppression of acute HIV-1 replication in PBMCs (in words)” value [1] was “suppression detected” and the “suppression of HIV-1 replication in fresh elutriated monocytes (in words)” value [2] was “able to suppress HIV-1 replication in fresh elutriated monocytes”. The p24 antigen ([2]; Day 17, 0.0000102 μg/ml) was 49 pg/mL, the p24 antigen ([2]; Day 17, 0.0000512 μg/ml) was 52 pg/mL and the p24 antigen ([2]; Day 17, 0.000256 μg/ml) was 70 pg/mL. For the same compound, the p24 antigen ([2]; Day 17, 0.00128 μg/ml) was 306 pg/mL, the p24 antigen ([2]; Day 17, 0.0064 μg/ml) was 66 pg/mL and the p24 antigen ([2]; Day 17, 0.032 μg/ml) was 94 pg/mL. It also gave a p24 antigen ([2]; Day 17, 0.16 μg/ml) of 7 pg/mL, a p24 antigen ([2]; Day 17, 0.8 μg/ml) of 6 pg/mL and a p24 antigen ([2]; Day 17, 4 μg/ml) of 6 pg/mL. It also gave a p24 antigen ([2]; Day 17, 20 μg/ml) of 5 pg/mL, a p24 antigen ([2]; Day 28, 0.0000102 μg/ml) of 1536 pg/mL and a p24 antigen ([2]; Day 28, 0.0000512 μg/ml) of 824 pg/mL. The p24 antigen ([2]; Day 28, 0.000256 μg/ml) was 760 pg/mL, the p24 antigen ([2]; Day 28, 0.00128 μg/ml) was 208 pg/mL and the p24 antigen ([2]; Day 28, 0.0064 μg/ml) was 584 pg/mL. It also gave a p24 antigen ([2]; Day 28, 0.032 μg/ml) of 0 pg/mL, a p24 antigen ([2]; Day 28, 0.16 μg/ml) of 0 pg/mL and a p24 antigen ([2]; Day 28, 0.8 μg/ml) of 0 pg/mL. It also gave a p24 antigen ([2]; Day 28, 4 μg/ml) of 0 pg/mL and a p24 antigen ([2]; Day 28, 20 μg/ml) of 0 pg/mL.
In the case of `CC(=O)O[C@@H]1[C@H](OC(=O)CC(C)C)c2c(ccc3ccc(=O)oc23)OC1(C)C` [Suksdorfin, suksdorfin], the IC50 (uninfected H9 cells; H9, Table 14, concentration which inhibits uninfected cell growth by 50%, read-out: IC50 (μM)^a) is reported as > 52 µM, the IC50 (uninfected H9 cells; H9, Table 17, uninfected H9 cell growth, read-out: IC50) is reported as > 52 µM and the IC50 (uninfected H9 cells; H9, concentration which inhibits uninfected cell growth by 50%, read-out: IC50) is reported as > 52 µM. The EC50 [1] was 3.9 µM, the EC50 ([1]; Table 6) was 1.5 µg/mL and the “suppression of acute HIV-1 replication in PBMCs (in words)” value [1] was “can suppress an acute HIV-1 replication”. For the same compound, the p24 ([3]; Day 6, 0.032 μg/ml) was 64,614 pg/ml, the p24 ([3]; Day 6, 0.16 μg/ml) was 70,195 pg/ml and the p24 ([3]; Day 6, 0.8 μg/ml) was 53,043 pg/ml. The p24 ([3]; Day 6, 4 μg/ml) was 48,748 pg/ml, the p24 ([3]; Day 6, 20 μg/ml) was 16,712 pg/ml and the p24 ([3]; Day 12, 0.032 μg/ml) was 173,998 pg/ml. For the same compound, the p24 ([3]; Day 12, 0.16 μg/ml) was 203,633 pg/ml, the p24 ([3]; Day 12, 0.8 μg/ml) was 163,656 pg/ml and the p24 ([3]; Day 12, 4 μg/ml) was 89,467 pg/ml. For the same compound, the p24 ([3]; Day 12, 20 μg/ml) was 25,567 pg/ml, the p24 ([3]; Day 18, 0.032 μg/ml) was 105,882 pg/ml and the p24 ([3]; Day 18, 0.16 μg/ml) was 125,440 pg/ml. For the same compound, the p24 ([3]; Day 18, 0.8 μg/ml) was 130,970 pg/ml, the p24 ([3]; Day 18, 4 μg/ml) was 103,834 pg/ml and the p24 ([3]; Day 18, 20 μg/ml) was 23,506 pg/ml. It also gave an inhibition at 0.032 µg/mL ([3]; 144 h, Day 6, 0.032 μg/ml) of 0%, an inhibition at 0.16 µg/mL ([3]; 144 h, Day 6, 0.16 μg/ml) of 0% and an inhibition at 0.8 µg/mL ([3]; 144 h, Day 6, 0.8 μg/ml) of 0%. The inhibition at 4 µg/mL ([3]; 144 h, Day 6, 4 μg/ml) was 18%, the inhibition at 20 µg/mL ([3]; 144 h, Day 6, 20 μg/ml) was 72% and the inhibition at 0.032 µg/mL ([3]; 288 h, Day 12, 0.032 μg/ml) was 0%. It also gave an inhibition at 0.16 µg/mL ([3]; 288 h, Day 12, 0.16 μg/ml) of 0%, an inhibition at 0.8 µg/mL ([3]; 288 h, Day 12, 0.8 μg/ml) of 40% and an inhibition at 4 µg/mL ([3]; 288 h, Day 12, 4 μg/ml) of 67%. For the same compound, the inhibition at 20 µg/mL ([3]; 288 h, Day 12, 20 μg/ml) was 91%, the inhibition at 0.032 µg/mL ([3]; 432 h, Day 18, 0.032 μg/ml) was 0% and the inhibition at 0.16 µg/mL ([3]; 432 h, Day 18, 0.16 μg/ml) was 0%. For the same compound, the inhibition at 0.8 µg/mL ([3]; 432 h, Day 18, 0.8 μg/ml) was 0%, the inhibition at 4 µg/mL ([3]; 432 h, Day 18, 4 μg/ml) was 0% and the inhibition at 20 µg/mL ([3]; 432 h, Day 18, 20 μg/ml) was 78%. The “suppression of HIV-1 replication in fresh monocytes (in words)” value ([3]; suksdorfin at 20 and 4 μg/ml, AZT positive control) was “did suppress HIV-1 replication in fresh monocytes”.
